Source: paper PMC4956724, “Assessing the reliability of uptake and elimination kinetics modelling approaches for estimating bioconcentration factors in the freshwater invertebrate, Gammarus pulex” (The Science of the Total Environment, 2016)
Like-named read-outs stand apart in the source and are kept apart here.

What was measured:
[1] = tested on: G. pulex; conditions: cited from earlier work
[2] = tested on: G. pulex; conditions: Gammarus pulex, in vivo
[3] = tested on: Gammarus pulex; assay: Toxicokinetic exposure (48 h uptake, 48 h depuration) of radio-labelled pharmaceuticals, first-order one-compartment model (OECD 305)
[4] = tested on: G. pulex exoskeleton; conditions: both, Gammarus pulex, in vivo, pH 8.2
[5] = tested on: G. pulex; assay: Re-examination of raw toxicokinetic data from Ashauer et al. (2010) using the OECD 305 modelling approach; conditions: 2010 re-modelled
[6] = sequential using curve fitting method
[7] = sequential using linear regression

Compound	BAF ([1]; in vivo)	BCF, Sequential BCF [2]	BCF, Simultaneous BCF [2] [L kg^− 1]	k1, Sequential BCF [2] [L kg^− 1 day^− 1]	k1, Simultaneous BCF [2] [L kg^− 1 day^− 1]	k2, Sequential BCF [2] [day^− 1]	k2, Simultaneous BCF [2] [day^− 1]	also measured
Clc1cccc(Cl)c1Cl [1,2,3-Trichlorobenzene]	191	351 L kg^− 1	107	167	1142	0.475	10.648	–
Oc1cc(Cl)c(Cl)cc1Cl [2,4,5-Trichlorophenol]	2635	8327 L kg^− 1	3729	1091	941	0.131	0.252	–
Nc1ccc(Cl)cc1Cl [2,4-Dichloroaniline]	56	179 L kg^− 1	50	70	140	0.392	2.830	–
Oc1ccc(Cl)cc1Cl [2,4-Dichlorophenol]	4466	72,728 L kg^− 1	9050	750	600	0.010	0.066	–
O=[N+]([O-])c1ccc(CCl)cc1 [4-Nitrobenzyl chloride]	185	214 L kg^− 1	147	259	666	1.212	4.540	–
CNC(=O)O/N=C/C(C)(C)SC [Aldicarb]	2	3 L kg^− 1	2	3	16	0.936	10.419	–
CNC(=O)Oc1cccc2c1OC(C)(C)C2 [Carbofuran]	65	72 L kg^− 1	68	10	10	0.140	0.146	–
CCOP(=S)(OCC)Oc1cc(C)nc(C(C)C)n1 [Diazinon]	82	101 L kg^− 1	77	161	276	1.590	3.569	–
O=C(O)Cc1ccccc1Nc1c(Cl)cccc1Cl [Diclofenac, diclofenac]	–	–	–	–	–	–	–	BCF, Simultaneous BCF ([3]; kinetic BCF (k1/k2), simultaneous method): 14 L kg^− 1; BCF, Sequential BCF a ([3]; kinetic BCF, sequential using curve fitting method): 27 L kg^− 1; BCF, Sequential BCF b ([3]; kinetic BCF, sequential using linear regression): 21 L kg^− 1; k1, Sequential BCF a [3, 6]: 0.253 L kg^− 1 day^− 1; k2, Sequential BCF a [3, 6]: 0.009 day^− 1; k1, Sequential BCF b [3, 7]: 0.269 L kg^− 1 day^− 1; k2, Sequential BCF b [3, 7]: 0.013 day^− 1; k2 (elimination rate constant), Simultaneous BCF ([3]; simultaneous method, 1 μg·L^− 1 (diclofenac, ibuprofen 10 μg·L^− 1), 15 °C, pH 8.2): 0.020 day^− 1; Maximum concentration sorbed to exoskeleton [4]: 18%; Mean Compound Mass per Animal [4]: 2070 pg; Total Mass Compound on exoskeleton [4]: 368 (n=4) pg
C=CC(=O)OCC [Ethylacrylate]	–	–	–	–	–	–	–	BAF ([1]; ref Ashauer et al. (2010)): 87; BCF, Sequential BCF ([5]; sequential method): 331 L kg^− 1; k1, Sequential BCF ([5]; sequential method): 67 L kg^− 1 day^− 1; k2, Sequential BCF ([5]; sequential method): 0.204 day^− 1; BCF, Simultaneous BCF ([5]; simultaneous method): 69 L kg^− 1; k1, Simultaneous BCF ([5]; simultaneous method): 110 L kg^− 1 day^− 1; k2, Simultaneous BCF ([5]; simultaneous method): 1.594 day^− 1
